The text below walks through data of patent US11998536B2, “Decreasing expression level of proteasome subunit genes by treating a human subject with a nitroxide” (priority 2018, dated 2024).

Assay [1] concerns genes associated with proteasome activity. The experiment in a line: Gene expression in Tempol-fed mice, chip-based microarray (summary in text). The class given is in vivo. The following applies: Tempol 5 mg/g of food from 14 to 31 months; cardiac tissue; vs mice on same food without Tempol. As to the method: (§1) To assess the effects of Tempol on gene expression, Tempol was administered to experimental mice at a dose of 5 mg/g of food from 14 months to 31 months after birth. Mice receiving the same food without the addition of Tempol were used as a negative control. At the age of 31 months, the experimental animals were sacrificed and the hearts were surgically removed. The expression of a broad spectrum of genes in the cardiac tissue was assessed using chip-based microarray technology. Such chips are well known in the art and are widely used to assess gene expression.

For assay [2], the system named is Psmd12. Kind of assay: Gene expression in Tempol-fed mice, chip-based microarray. The class given is in vivo. The conditions noted are these: white adipose tissue per table title (cardiac tissue per text). As to the method:
as §1

Assay [3] relates to Psme4. The description is as above. It counts as in vivo. The conditions noted are these: white adipose tissue per table title (cardiac tissue per text). The protocol:
as §1

Assay [4] deals with Psmc3. Described as above. The class given is in vivo. The following applies: white adipose tissue per table title (cardiac tissue per text). As to the method:
as §1

For assay [5], the system named is Psmd14. The assay is described as above. It counts as in vivo. The conditions noted are these: white adipose tissue per table title (cardiac tissue per text). As to the method: as §1
The test system of assay [6] is Psma7. Described as above. It counts as in vivo. The conditions noted are these: white adipose tissue per table title (cardiac tissue per text). As to the method:
as §1

For assay [7], the system named is Psmb4. Described as above. It counts as in vivo. The following applies: white adipose tissue per table title (cardiac tissue per text). As to the method:
as §1

In assay [8] the test system is Psmd13. Described as above. The following applies: white adipose tissue per table title (cardiac tissue per text). The class given is in vivo. As to the method: as §1
Assay [9] concerns Psmd9. The assay is described as above. It counts as in vivo. The conditions noted are these: white adipose tissue per table title (cardiac tissue per text). The protocol:
as §1

The subject of assay [10] is Psmd4. The description is as above. The class given is in vivo. The following applies: white adipose tissue per table title (cardiac tissue per text). The protocol:
as §1

Assay [11] deals with Psmb5. Described as above. It counts as in vivo. The conditions noted are these: white adipose tissue per table title (cardiac tissue per text). As to the method: as §1
For assay [12], the system named is Psma6. The description is as above. It counts as in vivo. The conditions noted are these: white adipose tissue per table title (cardiac tissue per text). The protocol:
as §1

For assay [13], the system named is Psmd3. The assay is described as above. It counts as in vivo. The conditions noted are these: white adipose tissue per table title (cardiac tissue per text). As to the method: as §1
Assay [14] deals with Psmc2. The assay is described as above. It counts as in vivo. The following applies: white adipose tissue per table title (cardiac tissue per text). The protocol: as §1
The subject of assay [15] is Psmc4. The assay is described as above. It counts as in vivo. The following applies: white adipose tissue per table title (cardiac tissue per text). As to the method:
as §1

In assay [16] the test system is Psmc6. The assay is described as above. The class given is in vivo. The following applies: white adipose tissue per table title (cardiac tissue per text). The protocol: as §1
The test system of assay [17] is Psma2. Described as above. The class given is in vivo. The following applies: white adipose tissue per table title (cardiac tissue per text). The protocol:
as §1

In assay [18] the target is β1 (caspase-like) sites of the proteasome (Homo sapiens, UniProt P28072). The following applies: relative to β5/β5i sites; cited from earlier work.
Assay [19] deals with β5/β5i sites (chymotrypsin-like sites) of the proteasome. The conditions noted are these: cited from earlier work.
In assay [20] the target is β2 sites of the proteasome (Homo sapiens, UniProt Q99436). The conditions noted are these: under normal conditions; cited from earlier work.
Setting [21] is: Tempol 5 mg/g of food from 14 to 31 months, microarray.
Setting [22] is: Tempol-treated vs control mice, 5 mg/g of food from 14 to 31 months.

For the compound `CC1(C)CC(O)CC(C)(C)N1[O]` [Tempol, 4-hydroxy-2,2,6,6-tetramethylpiperidine-1-oxyl], in [1], the “Change in expression of the 16 listed proteasome genes” value is on record as “statistically significant decrease in expression”. Moreover, the “Psmd12 expression, Tempol-treated mice” value in [2] (setting [21]) is 1098. For the same compound, in assay [2] (setting [22]), the Psmd12 fold change was −1.20. Moreover, in assay [3] (setting [21]), the “Psme4 expression, Tempol-treated mice” value is 1086. In addition, the Psme4 fold change in assay [3] (setting [22]) is −1.16. In addition, the “Psmc3 expression, Tempol-treated mice” value in assay [4] (setting [21]) turned out to be 1810. Also, in [4] (setting [22]), the Psmc3 fold change is given as −1.23. The “Psmd14 expression, Tempol-treated mice” value in assay [5] (setting [21]) worked out at 2745. Also, in [5] (setting [22]), the Psmd14 fold change is listed as −1.20. For the same compound, the “Psma7 expression, Tempol-treated mice” value in assay [6] (setting [21]) worked out at 1513. Also, the Psma7 fold change in [6] (setting [22]) was −1.23. In addition, in [7] (setting [21]), the “Psmb4 expression, Tempol-treated mice” value is recorded as 3614. The Psmb4 fold change in assay [7] (setting [22]) is on record as −1.15. Besides, the “Psmd13 expression, Tempol-treated mice” value in assay [8] (setting [21]) was determined as 1047. Besides, in [8] (setting [22]), the Psmd13 fold change is given as −1.23. Moreover, in assay [9] (setting [21]), the “Psmd9 expression, Tempol-treated mice” value came to 310. Also, the Psmd9 fold change in [9] (setting [22]) is on record as −1.18. In addition, the “Psmd4 expression, Tempol-treated mice” value in assay [10] (setting [21]) worked out at 2610. In addition, the Psmd4 fold change in [10] (setting [22]) was −1.20. Moreover, in [11] (setting [21]), the “Psmb5 expression, Tempol-treated mice” value came out at 1754. Also, in [11] (setting [22]), the Psmb5 fold change was −1.15. The “Psma6 expression, Tempol-treated mice” value in [12] (setting [21]) amounted to 3467. In addition, the Psma6 fold change in assay [12] (setting [22]) is −1.09. Moreover, the “Psmd3 expression, Tempol-treated mice” value in assay [13] (setting [21]) was found to be 1017. For the same compound, the Psmd3 fold change in assay [13] (setting [22]) is −1.12. For the same compound, in assay [14] (setting [21]), the “Psmc2 expression, Tempol-treated mice” value was found to be 2176. The Psmc2 fold change in assay [14] (setting [22]) is reported as −1.23. In assay [15] (setting [21]), the “Psmc4 expression, Tempol-treated mice” value is 1101. In addition, the Psmc4 fold change in [15] (setting [22]) is given as −1.52. In addition, in [16] (setting [21]), the “Psmc6 expression, Tempol-treated mice” value is given as 1449. Moreover, the Psmc6 fold change in [16] (setting [22]) is recorded as −1.16. Also, in assay [17] (setting [21]), the “Psma2 expression, Tempol-treated mice” value amounted to 3123. For the same compound, the Psma2 fold change in assay [17] (setting [22]) was −1.20.
As for `CC(C)C[C@H](NC(=O)[C@H](Cc1ccccc1)NC(=O)c1cnccn1)B(O)O` [bortezomib], the “Affinity for β1 sites, lower than for β5/β5i sites” value in assay [18] is “approximately 10 fold”. Also, in assay [19], the “Inhibition of β5/β5i sites” value is listed as “high potency”. Moreover, the “Targeting of β2 sites” value in assay [20] is on record as “not appreciably targeted”.
